In patent publication US20220000887A1, “REPURPOSED ANTIBIOTICS FOR NON-NUCLEAR GENOTOXIC CHEMOTHERAPY AND PHARMACEUTICAL COMPOSITION FOR ANTI-CANCER CONTAINING THE SAME” (Korea University Research and Business Foundation, priority 2019, published 2022):
Where “and” joins values, the source holds several entries; their conditions need not be identical. Identical values can stand only once. Entries after “also recorded” stand apart in the source; their conditions may differ. Like-named read-outs stand apart in the source and are kept apart here.

Assays:
[1] = tested on: MDA-MB-231 metastatic breast cancer cells; assay: Cell viability analysis (LDH assay), MDA-MB-231; conditions: for apoptotic effect on MDA-MB-231 cells: 48 h treatment
[2] = tested on: SW620 (colon cancer cells); assay: Cell viability analysis (LDH assay), SW620; format: cell-based, human; conditions: FIG. 3
Protocol: (§1) Particularly, the inventive anticancer drugs had IC50 values of 23.77 μM and 27.05 μM against A549 and SW620, respectively.

[3] = tested on: PC3 (prostate cancer cells); assay: Cell viability analysis (LDH assay), PC3; format: cell-based, human; conditions: FIG. 3
Protocol: as §1

[4] = tested on: DU145 (prostate cancer cells); assay: Cell viability analysis (LDH assay), DU145; format: cell-based, human; conditions: FIG. 3
Protocol: as §1

A549 (lung cancer cells) = assay: Cell viability analysis (LDH assay), A549; format: cell-based, human; conditions: FIG. 3
Protocol: as §1

MDA-MB-231 cells [5] = assay: Mitochondrial membrane potential measurement (JC-1 assay); format: cell-based, human; conditions: 10 μM, 0, 6, 12, 24 h, FIG. 7
Protocol: Mitochondrial membrane potential differences were measured. To this end, the MDA-MB-231 cells were treated with 10 μM Ester MT-CFX for different periods of time (0, 6, 12, and 24 h) and cultured for indicated periods of time. Cells were harvested, washed once with ice-cold PBS, and cultured with […] 5,5′,6,6′-tetrachloro-1,1′,3,3′-tetraethyl-benzimidazolyl carbocyanine chloride (JC-1) at 37° C. for 20 min. The JC-1 stained cells were centrifuged at 1,300 g for 3 min and washed twice with ice-cold PBS. Mitochondrial membrane potentials of JC-1 monomer (green channel) and aggregate (red channel) were measured in different wavelength bands.

MDA-MB-231 cells [6] = assay: Reactive oxidative species (ROS) measurement (Amplex Red, CM-H2DCFDA); format: cell-based, human; conditions: 10 μM, 48 h, FIG. 4
Protocol: The activity of hydrogen peroxide (H2O2) produced in cells was evaluated by detection with Amplex® Red reagent (10-acetyl-3,7-dihydroxyphenoxazine; Thermo Fisher scientific). Here, Amplex® Red reagent reacts with H2O2 in a stoichiometric ratio of 1:1 in the presence of peroxidase in cells to produce resorufin as a red fluorescent product. The fluorescence of resorufin can be analyzed at excitation and emission wavelengths of 571 nm and 581 nm, respectively. The MDA-MB-231 cell line was seeded into a 96-well plate and treated with 10 μM Ester MT-CFX for 48 h. Thereafter, the amount of hydrogen peroxide was measured. A reaction mixture of 50 μM Amplex® Red reagent and 0.1 U/mL HRP was prepared in Krebs-Ringer phosphate buffer (145 mM NaCl, 5.7 mM sodium phosphate, 4.86 mM KCl, 0.54 mM CaCl2, 1.22 mM MgSO4, 5.5 mM glucose, pH 7.35). 100 μL of the reaction mixture was added to each plate well, followed by incubation at 37° C. for 10 min. The brightness of fluorescence was measured at 530-560 nm excitation and 590 nm emission wavelengths using a microplate reader. The MDA-MB-231 cell line was seeded into a confocal dish. […] The fluorescence of reactive oxygen species produced in cells was imaged by confocal laser scanning microscopy at 492-495 nm excitation and 517-527 nm emission wavelengths.

[7] = tested on: mitochondrial genomic DNA; assay: Taq1 assay for damage to mitochondrial genomic DNA (FIG. 10); format: cell-based
[8] = tested on: mitochondrial DNA synthesis; assay: Mitochondrial DNA synthesis (FIG. 5); format: cell-based
Source text: (§2) RNA was extracted from each sample using TRIzol solution. cDNA synthesized from the isolated RNA or intracellular genomic DNA extracted using a genomic DNA isolation kit was used for real-time polymerase chain reaction (PCR).
(§3) The real-time PCR data were normalized by the expression of glyceraldehyde-3-phosphate dehydrogenase (GAPDH). Relative expression levels were expressed as fold changes over the control. The results (mean±SE) were obtained in triplicate and a p value <0.05 was taken to be statistically significant.

[9] = tested on: nuclear and mitochondrial DNA; assay: Real-time PCR for nuclear and mitochondrial DNA damage lesions (FIG. 11); format: cell-based
Source text: as §2, §3

MDA-MB-231 xenograft = assay: In vivo mouse xenograft model; conditions: intravenous three times a week, 12 weeks, BALB/c-nu-nu mice
Protocol: Five-week-old immunodeficient male BALB/c-nu-nu mice (Orient bio, Korea) weighing between 18-20 g were used. The animals were bred and housed in a facility maintaining a humidity of 30-40% and a temperature of 22±1° C. on a 12-h light/dark cycle. All animal experiments were approved by the Ethics Committee for Animal Studies at Korea University. Animals were treated in accordance with the protocol approved by the Ethics Committee.
MDA-MB-231 cells (5×10^6 cells) were injected subcutaneously into 6-week-old immunodeficient BALB/c-nu-nu mice weighing between 18-20 g to establish tumor-bearing mouse models. […] The lengths of the long and short axes of tumors were measured weekly. 12 weeks after the first injection of each compound, the mice were sacrificed and tumor samples were collected for further analysis. […] Each asterisk (*) indicates a significant difference to the corresponding control.

[10] = tested on: nuclear DNA and mitochondrial DNA
Source text: as §2, §3

[11] = tested on: nuclear DNA and mitochondrial DNA; assay: Damage to nuclear DNA and mitochondrial DNA (FIG. 8)
Source text: as §2, §3

MDA-MB-231 cells [12] = assay: FACS measurement of Annexin-V positive apoptotic cells; format: cell-based, human; conditions: 10 μM, 0, 6, 12, 24 h, Annexin V assay, FIG. 7
Protocol: Annexin-V positive apoptotic cells were analyzed by flow cytometry. To this end, the MDA-MB-231 cells were treated with 10 μM Ester MT-CFX for different periods of time (0, 6, 12, and 24 h) and cultured for indicated periods of time. Cells were harvested, washed twice with ice-cold PBS, placed in BD FACS tubes (10^6/mL), and cultured with 10 μg/mL annexin V in PBS containing 10% FBS at room temperature for 30 min. Subsequently, cells were washed with ice-cold PBS and annexin V fluorescence was measured in the FL-1 channel using a FACSCalibur flow cytometer (BD, USA).

With O=C(O)c1cn(C2CC2)c2cc(N3CCNCC3)c(F)cc2c1=O [ciprofloxacin, reference compound] the “apoptotic effect on MDA-MB-231 cells” value ([1]; LDH assay) was “little or no apoptotic effect”.
O=C(NCCCCCC[P+](c1ccccc1)(c1ccccc1)c1ccccc1)c1cn(C2CC2)c2cc(N3CCNCC3)c(F)cc2c1=O.[Cl-] [Amide Mt-CFX] was tested, and the “apoptotic effects on SW620” value [2] was “apoptotic effects”, the “apoptotic effects on PC3” value [3] was “apoptotic effects” and the “apoptotic effects on DU145” value [4] was “apoptotic effects”. The “apoptotic effects on A549” value (A549 (lung cancer cells)) was “apoptotic effects” and the “apoptotic effect on MDA-MB-231 cells” value ([1]; LDH assay) was “enhanced apoptotic effect; also recorded: apoptotic effects”.
In the case of Cl.O=C(OCCCCCC[P+](c1ccccc1)(c1ccccc1)c1ccccc1)c1cn(C2CC2)c2cc(N3CCNCC3)c(F)cc2c1=O.[Cl-] [Ester Mt-CFX], the “mitochondrial membrane potential differences” value (MDA-MB-231 cells [5]) is reported as “reduction of mitochondrial membrane potential differences”, the “production of reactive oxygen species” value (MDA-MB-231 cells [6]) is reported as “reactive oxygen species are produced” and the “mitochondria targeting (damage to mitochondrial genomic DNA)” value [7] is reported as “targeted mitochondria”. For the same compound, the “apoptotic effects on SW620” value [2] was “apoptotic effects”, the “mitochondrial DNA synthesis” value [8] was “inhibition of mitochondrial DNA synthesis” and the “apoptotic effects on PC3” value [3] was “apoptotic effects”. For the same compound, the “apoptotic effects on DU145” value [4] was “apoptotic effects”, the “apoptotic effects on A549” value (A549 (lung cancer cells)) was “apoptotic effects” and the “mitochondrial mutations (DNA damage lesions)” value [9] was “induced mitochondrial mutations”. For the same compound, the “cancer volume compared to control” value (MDA-MB-231 xenograft) was “significant reduction in cancer volume”, the “toxicity to nuclear genes” value [10] was “no toxicity to nuclear genes” and the “toxicity to mitochondrial genes” value [11] was “selective toxicity to mitochondrial genes”. The apoptosis over time (MDA-MB-231 cells [12]) was “occurrence of apoptosis over time”, the “apoptotic effect on MDA-MB-231 cells” value ([1]; LDH assay) was “strong apoptotic effect; also recorded: apoptotic effects” and the IC50 ([1]; MDA-MB-231, 48 h treatment, LDH assay) was ~15 µM and 20 to 30 µM. The “apoptotic activity against the cancer cells, fold higher than that of ciprofloxacin” value ([1]; MDA-MB-231, ratio of IC50 values) was ~55,000 fold.
For COc1cccc2c1C(=O)c1c(O)c3c(c(O)c1C2=O)C[C@@](O)(C(=O)CO)C[C@@H]3O[C@H]1C[C@H](N)[C@H](O)[C@H](C)O1 [doxorubicin, reference compound], the “toxicity to nuclear genes” value [11] was “strong toxicity to nuclear genes”.
